{"source": "patent US20200375919A1", "about": "“BONE GRAFT MATERIAL WITH 4-HEXYLRESORCINOL THAT AFFECTS BONE FORMATION” (MANTIZ LOGITECH CO., LTD., priority 2019, published 2020)", "key": {"osteoclasts": {"test_system": "osteoclasts", "experiment": "Differentiation of osteoclasts (TRAP staining)", "format": "cell-based, human", "settings": "FIGS. 6A and 6B", "protocol": "Method of Measuring Differentiation Abilities of Osteoclasts (TRAP Staining)\n(§1) In vitro tests were performed by using osteoclasts through a human bone marrow derived macrophages culture. A cell survival environment was progressed by supplementing DMEM (Dulbecco Modified Eagle's Medium)-high glucose (PAA Laboratories, Pasching, Austria) and 20% fetal bovine serum (PAA, Canada) and comprising 1% penicillin/streptomycin (100×), and media were exchanged once a day. Resulting materials were confirmed on the fifth day of differentiation experiments through TRAP staining."}, "osteoblast-like cells [1]": {"test_system": "osteoblast-like cells", "experiment": "Alkaline phosphatase activity (early-stage osteoblastic differentiation)", "format": "cell-based, human", "settings": "0.0194% (=10^-4M) compared with 3% and control; seventh day; FIG. 2", "protocol": "Method of Measuring Cell Culture and Alkaline Phosphatase Activities\nas §1, with “osteoblast-like cells” for “osteoclasts”, “primary cell” for “bone marrow derived macrophages”, “every other” for “once a”, “seventh” for “fifth”, “by using alkaline phosphatase (Sigma, St. Louis, Mo., USA).” for “through TRAP staining.”"}, "ALP, Runx2, Osx, Ocn": {"test_system": "ALP, Runx2, Osx, Ocn", "experiment": "mRNA expression of osteoblast differentiation markers", "format": "cell-based", "settings": "0.0194% (=10^-4M) compared with 3% or control; FIGS. 4A to 4D"}, "human primary cells": {"test_system": "human primary cells", "experiment": "MTS measuring of cytotoxicity and cell viability", "format": "cell-based", "settings": "FIG. 1", "text": "MTS Measuring Method of Cytotoxicity and Cell Viability\nMitochondrial NADH-dehydrogenase forms formazan having a color by reducing a tetrazolium salt such as MTS. Therefore, as the number of cells which express dehydrogenase, i.e., living cells is proportional to formation of formazan, the living cells can be quantified.\nAfter seeding human primary cells, adhering the seeded-human primary cells to a cell plate, and treating the seeded-human primary cells adhered to the cell plate with an MTS Cell Proliferation Assay Kit (ab197010, UK, abcam) every 24 hours and 48 hours, resulting materials were confirmed by using a wavelength of 490 nm."}, "ALP and Runx2": {"test_system": "ALP and Runx2", "experiment": "Western blot protein level", "format": "cell-based", "settings": "0.0194% compared with 3% or control; FIG. 5"}, "osteoblast-like cells [2]": {"test_system": "osteoblast-like cells", "experiment": "Alizarin Red S staining (late osteoblast differentiation, calcium accumulation)", "format": "cell-based, human", "settings": "0.0194% (=10^-4M) compared with 3% and control; FIG. 3", "protocol": "Method of Measuring Bone Differentiation Degrees by Dyeing Calcium Accumulation of Bone-Differentiated Cells (Alizarin Red S Staining)\nas §1, with “osteoblast-like cells” for “osteoclasts”, “primary cell” for “bone marrow derived macrophages”, “every other” for “once a”, “seventh” for “fifth”, “experiments.” for “experiments through TRAP staining.”"}}, "data": [{"smiles": "CCCCCCc1ccc(O)cc1O", "note": "[4-hexylresorcinol]", "values": [{"measurement": "effect on differentiation of osteoclasts, low versus high concentration", "setting": "osteoclasts; 0.0194% compared with 3%", "value": "more excellent"}, {"measurement": "differentiation of osteoclasts", "setting": "osteoclasts; treating 4-hexylresorcinol, fifth day", "value": "inhibited"}, {"measurement": "ALP activity", "setting": "osteoblast-like cells [1]", "value": "high ALP activity"}, {"measurement": "mRNA expression level of ALP, Runx2, Osx, Ocn", "setting": "ALP, Runx2, Osx, Ocn", "value": "larger expression level"}, {"measurement": "cell proliferation, low versus high concentration", "setting": "human primary cells; 0.0194% compared with 3%", "value": "cell proliferation is more active"}, {"measurement": "cell viabilities versus control", "setting": "human primary cells; 4-hexylresorcinol concentrations of 3% and 0.0194% (=10^-4M)", "value": "higher than a control"}, {"measurement": "ALP and Runx2 protein expression levels (western blot)", "setting": "ALP and Runx2", "value": "higher"}, {"measurement": "calcification (Alizarin Red S staining)", "setting": "osteoblast-like cells [2]", "value": "high calcification"}]}]}
